Experimental data taken from patent US8592431B2, “Fused ring compound and use thereof” (Takeda Pharmaceutical Company Limited, priority 2009, dated 2013).

target: human PPARγ (Homo sapiens (Human), UniProt P37231); assay: PPARγ agonistic activity: luciferase reporter assay in PPARγ:RXRα:4ERPP/CHO-K1 cells; type: cell-based; details: CHO-K1, test compound 10^−6 M; control compound X (1 μM) taken as 100%
Description: Evaluation of PPARγ Agonistic Activity
(5) Introduction of Human PPARγ- and RXRα-Expression Plasmid and Reporter Plasmid into Cho-K1 Cell as Well as Establishment of Expressed Cell
A CHO-K1 cell cultured in a 150 cm^2 cell culture flask [manufactured by Corning Costar Corporation, USA] comprising Ham's F12 medium [manufactured by INVITROGEN, USA] supplemented with 10% fetal bovine serum [manufactured by INVITROGEN, USA] was taken off by treating with 0.5 g/L trypsin-0.2 g/L EDTA (ethylenediamine tetraacetate) [manufactured by Life Technologies, Inc., USA], and then the cell was washed with PBS (Phosphate-buffered saline) [manufactured by INVITROGEN, USA], centrifuged (1000 rpm, 5 minutes) and suspended in PBS. Subsequently, DNA was introduced into the cell under the conditions shown below using GENE PULSER [manufactured by Bio-Rad Laboratories, USA].
Namely, to a cuvette having a 0.4 cm gap were added 8×10^6 cells and 10 μg of plasmid pVgRXR2-hPPARγ obtained in the above-mentioned (4) and 10 μg of reporter plasmid pGL3-4ERPP-TK neo obtained in the above-mentioned (3), which was subjected to electroporation at the voltage of 0.25 kV under the capacitance of 960 μF. Subsequently, the cell was transferred into a F12 medium comprising 10% fetal bovine serum and cultured for 24 hours, and then the cell was taken off again and centrifuged. Then, the pellet was suspended in Ham's F12 medium comprising 10% fetal bovine serum supplemented with 500 μg/ml of Geneticin [manufactured by INVITROGEN, USA] and 250 μg/ml of Zeocin [manufactured by INVITROGEN, USA]. The obtained suspension was diluted to the density of 10^4 cells/ml and inoculated in a 96-well plate [manufactured by Corning Costar Corporation, USA], which was cultured in a CO2 gas incubator at 37° C., whereby obtaining a Geneticin- and Zeocin-resistant transformant.
Subsequently, after the transformed cell line thus obtained was cultured in a 24-well plate [manufactured by Corning Costar Corporation, USA], a cell line in which expression of the luciferase was induced, i.e., PPARγ:RXRα:4ERPP/CHO-K1 cell was selected by the addition of 10 μM pioglitazone hydrochloride.
(6) Evaluation of PPARγ Agonistic Activity
PPARγ:RXRα:4ERPP/CHO-K1 cells obtained in the above-mentioned (5) were cultured in F12 medium [manufactured by INVITROGEN, USA] containing 10% fetal bovine serum [manufactured by MOREGATE, Australia], seeded in a 96 well half-area white plate [manufactured by Corning Coster Corporation, USA] at 5×10^3 cells/well, and cultured in a CO2 incubator at 37° C. overnight.
Then, the medium was removed from the 96 well half-area white plate, hamF12 medium containing 0.1% fatty acid-free bovine serum albumin (BSA) (45 μl) and a test compound (5 μl) were added, and the mixture was cultured in the CO2 incubator at 37° C. for 1 day. After removing the medium, Picagene 7.5 [manufactured by Dai Nippon Inki, Japan] (20 μl) diluted 2-fold with HBSS (HANKS' BALANCED SALT SOLUTION) [manufactured by BIO […], USA] was added, and the mixture was stirred. Using 1420 ARVO Multilabel Counter [manufactured by PerkinElmer, USA], luciferase activity was measured.
The percentage (%) was calculated from the luciferase activity of the test compound when the luciferase activity of the control compound (compound X: 5-[3-(4-{[2-(2-furyl)-5-methyl-1,3-oxazol-4-yl]methoxy}-3-methoxyphenyl)propyl]-1,3-oxazolidine-2,4-dione) (1 μM) was taken as 100% and the luciferase activity of the test compound non-administration group was taken as 0%.

Chain of human PPARγ (P37231 29-505): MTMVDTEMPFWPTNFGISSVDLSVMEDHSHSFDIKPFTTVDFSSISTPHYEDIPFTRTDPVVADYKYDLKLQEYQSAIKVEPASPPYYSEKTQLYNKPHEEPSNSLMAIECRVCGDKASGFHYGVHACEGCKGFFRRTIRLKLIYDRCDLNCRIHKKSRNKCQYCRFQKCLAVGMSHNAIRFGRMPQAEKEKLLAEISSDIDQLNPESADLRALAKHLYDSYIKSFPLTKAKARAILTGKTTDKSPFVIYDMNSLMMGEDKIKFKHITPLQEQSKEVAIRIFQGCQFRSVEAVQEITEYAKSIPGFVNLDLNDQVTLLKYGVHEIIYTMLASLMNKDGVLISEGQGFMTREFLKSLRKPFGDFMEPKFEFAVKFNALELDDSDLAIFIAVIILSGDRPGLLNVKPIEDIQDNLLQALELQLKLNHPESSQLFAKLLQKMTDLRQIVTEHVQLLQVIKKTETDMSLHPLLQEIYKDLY
Chain of human PPARγ (P19793 whole entry partner): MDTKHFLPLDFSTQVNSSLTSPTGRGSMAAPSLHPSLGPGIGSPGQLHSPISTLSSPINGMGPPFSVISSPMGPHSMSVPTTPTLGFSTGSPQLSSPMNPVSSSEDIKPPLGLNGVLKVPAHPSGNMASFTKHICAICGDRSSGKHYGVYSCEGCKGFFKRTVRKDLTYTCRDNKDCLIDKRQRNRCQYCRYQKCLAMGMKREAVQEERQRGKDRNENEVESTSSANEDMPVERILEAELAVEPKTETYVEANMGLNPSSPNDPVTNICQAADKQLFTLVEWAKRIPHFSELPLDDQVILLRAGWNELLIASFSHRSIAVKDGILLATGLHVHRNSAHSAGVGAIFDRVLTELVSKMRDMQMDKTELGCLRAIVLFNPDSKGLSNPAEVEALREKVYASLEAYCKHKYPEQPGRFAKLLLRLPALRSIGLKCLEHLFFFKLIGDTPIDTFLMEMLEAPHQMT

Row | SMILES | activation at 1 µM
1 | CCCc1c(Cc2ccc(-c3ccccc3-c3noc(=O)[nH]3)cc2)c(=O)n([C@H]2CC[C@H](OC(C)C(C)(C)O)CC2)c2ncnn12 (single isomer, unassigned) [Example 318, 4-[trans-4-(2-hydroxy-1,2-dimethylpropoxy)cyclohexyl]-6-{[2′-(5-oxo-4,5-dihydro-1,2,4-oxadiazol-3-yl)biphenyl-4-yl]methyl}-7-propyl[1,2,4]triazolo[1,5-a]pyrimidin-5(4H)-one (Retention Time: Short)] | 17%
2 | CCCc1c(Cc2ccc(-c3ccccc3-c3noc(=O)[nH]3)cc2F)c(=O)n([C@H]2CC[C@H](OC(C)C(C)(C)O)CC2)c2ncnn12 (single isomer, unassigned; (+)) [Example 247, (+)-6-{[3-fluoro-2′-(5-oxo-4,5-dihydro-1,2,4-oxadiazol-3-yl)biphenyl-4-yl]methyl}-4-[trans-4-(2-hydroxy-1,2-dimethylpropoxy)cyclohexyl]-7-propyl[1,2,4]triazolo[1,5-a]pyrimidin-5(4H)-one] | 17%

same assay, conditions: test compound 10^−6 M; control compound X (1 μM) taken as 100%

Row | SMILES | PPARγ agonistic activity (activation % (10^−6 M))
3 | CCCc1c(Cc2ccc(-c3ccccc3-c3noc(=O)[nH]3)cc2)c(=O)n([C@H]2CC[C@H](OC(C)C(C)(C)O)CC2)c2ncnn12 (single isomer, unassigned) [Example 319, 4-[trans-4-(2-hydroxy-1,2-dimethylpropoxy)cyclohexyl]-6-{[2′-(5-oxo-4,5-dihydro-1,2,4-oxadiazol-3-yl)biphenyl-4-yl]methyl}-7-propyl[1,2,4]triazolo[1,5-a]pyrimidin-5(4H)-one (Retention Time: Long)] | 16%
4 | CCCCc1c(Cc2ccc(-c3ccccc3-c3noc(=O)[nH]3)cc2)c(=O)n(C2CCOC(C)C2)c2ncnn12 (stereo not drawn) [Example 160, 7-butyl-4-(2-methyltetrahydro-2H-pyran-4-yl)-6-{[2′-(5-oxo-4,5-dihydro-1,2,4-oxadiazol-3-yl)biphenyl-4-yl]methyl}[1,2,4]triazolo[1,5-a]pyrimidin-5(4H)-one] | 26%
5 | CCCCc1c(Cc2ccc(-c3ccccc3-c3noc(=O)[nH]3)cc2)c(=O)n(C2CCOC(C)C2)c2ncnn12 (stereo not drawn) [Example 161, 7-butyl-4-(2-methyltetrahydro-2H-pyran-4-yl)-6-{[2′-(5-oxo-4,5-dihydro-1,2,4-oxadiazol-3-yl)biphenyl-4-yl]methyl}[1,2,4]triazolo[1,5-a]pyrimidin-5(4H)-one] | 47%
6 | CCCc1c(Cc2ccc(-c3ccccc3-c3noc(=O)[nH]3)cc2)c(=O)n([C@H]2CC[C@H](OC(C)C(C)(C)O)CC2)c2ncnn12 (stereo partly drawn) [Example 300, 4-[trans-4-(2-hydroxy-1,2-dimethylpropoxy)cyclohexyl]-6-{[2′-(5-oxo-4,5-dihydro-1,2,4-oxadiazol-3-yl)biphenyl-4-yl]methyl}-7-propyl[1,2,4]triazolo[1,5-a]pyrimidin-5(4H)-one] | 16%
